Laboratory results from patent US7728128B2, “Dibenzo[c,h][1,5]naphthyridines and their use as DNA probes” (Institut National de la Sante et de la Recherche Medicate …, priority 2006, dated 2010).
In brackets after ≈: the same amount, converted by molar mass.

Key:
[1] = test system: dA/dT and dG/dC homopolymers; assay: fluorescence and absorption with dA/dT and dG/dC homopolymers; type: binding
Method: Plasmid dsDNA was purified using a Qiagen Maxiprep kit and used in the supercoiled form for absorption and fluorescence studies. E. coli total RNA was bought from Ambion, dA/dT and dG/dC homopolymers were purchased from Amersham Biosciences. Calf thymus (CT) high-molecular weight DNA and Hoechst 33258 were obtained from Sigma-Aldrich. Ethidium bromide was purchased from Amresco.
Spectrometry and fluorimetry were performed using a SpectraMax384 (Molecular Devices) and a Luminescence Spectrometer LS50B (Perkin Elmer). Fluorescence emission of compound I in complex with DNA and RNA was measured in 50 mM Na phosphate buffer, pH 7.2 at room temperature. Before use, total E. coli RNA was heated to 100° C. for 1 min and immediately transferred on ice for 5 min before mixing with compound I solution. All measurements were carried out at room temperature (20-23° C.) in solutions protected from light and incubated for ˜10-15 min after dilution. The units of b/dye and bp/dye are defined as moles of RNA bases or DNA base pairs per mole of dye. Quantum yield was measured using quinine sulphate as standard as described in (Iupac Commission on Photochemistry, EPA Newsletter of November 1986, 21-29) using FLUOROMAX-3 Spex Spectrofluorometer (HORIBA) and UVIKON XL Spectrophotometer (SECOMAM).
Many intercalating dyes and minor groove-binding DNA dyes can interact differently with dA/dT or dG/dC DNA tracts. […] To investigate the properties of compound I when bound to different DNA tracts, the inventors examined its fluorescence in admixture with an excess of plasmid DNA and either dA/dT or dG/dC homopolymers. […] The peak at 484 nm was much more pronounced when plasmid DNA was replaced by the dA/dT homopolymers (see also FIG. 1F). […] In FIG. 3C, the graphs show emission spectra upon excitation at 371 nm to allow plotting the emission of free compound I. Similar results were obtained when exciting DNA/compound I complexes at 391 and 435 nm.

live mouse fibroblasts = assay: photoactivation of nuclear fluorescence in live cells (time-lapse video microscopy); type: cell-based; conditions: 5 μM, continuous illumination, Alexa488/FITC filter
Method: Compound I at 5 μM was added directly into the cell medium 10 min before observation in an inverted microscope Zeiss Axiovert 200M with a 100 W mercury lamp. Time lapse images were acquired using CoolSnap HQ (Photometrics, Inc.) black and white camera driven by the Metamorph software (Universal Imaging). All experiments were carried out using 40× or 63× (FIGS. 1C and D) oil immersion Apochromat Zeiss objectives. To measure the fluorescence intensities, an oval region was drawn inside of each nucleus using Metamorph software and integrated intensities (nuclear surface multiplied by the average pixel value) were logged for each image.
To quantify this effect, live mouse fibroblasts were incubated in the presence of 5 μM compound I and time-lapse video microscopy was used to film the cells. Nuclear fluorescence develops slowly in the nuclei of cells treated with compound I and illuminated continuously using a standard Alexa488/FITC filter set (475AF40, 535AF45) (FIG. 5A). Fluorescence peaked after 8 min of illumination and then started to fade (FIG. 5C), most likely reflecting the “bleaching” of compound I. The photoactivation concerned only the cells in the illuminated field, as nuclei of cells immediately outside of the illuminated field remained imperceptible (non-fluorescent). […]

solubility in DMSO = type: physicochemical; conditions: organic solvent or mixture, free base, read-out: solubility (saturation)
Method: Solubility of compound I: In DMSO, compound I (free base) is soluble until saturation at ˜7 mM. As much as 1 volume of 7 mM, compound I in DMSO mixed with 7 volumes of H2O forms a turbid solution (0.875 mM compound I in ˜12% DMSO). Upon sonication for 1 min, this solution becomes limpid and can be further dissolved in aqueous solutions.

Xenopus cells XL177 = assay: visual phenotypic screen on live Xenopus cells XL177; type: cell-based
Method: In this study, three different types of cells were used: Xenopus epithelial cell line XL177 (Miller, L. et al., 1977, In Vitro, 13, 557-563) stably transformed with a YFP-α-tubulin expressing construct (pEYFP-Tub, Clontech), mouse fibroblasts, and primary human skin fibroblasts. XL177 cells were grown at 20° C. in 60% Leibowitz-15 medium, supplemented with antibiotics, 10% fetal calf serum (FCS) and 10 mM HEPES, pH 7.2 with addition of 0.7 mg/ml G418. Cells were plated into glass-bottom 96-well plates (Greiner, Germany) and left to spread for 24 hours before being incubated in the presence of the test compounds from the Curie-CNRS small molecule library (at 25 or 50 μM final concentration) for another 20-24 hours. Mouse and human fibroblasts were grown in DMEM with antibiotics and 10% FCS at 37° C. in the presence of 5% CO2. The cells were observed using a Zeiss Axiovert 200M microscope with a 40× oil immersion objective and a standard Alexa488/FITC filter (Omega, XF100-2; Ex475AF40/Em535AF45/Dichroic505). Subsequent experiments were carried out using smaller concentrations of compound I and incubation times as described in the text and figures legends. For the in vivo tests of compound I-like compounds, the molecules were added to cell culture medium at 10 μM final concentration and incubated with cells 10-60 min (up to 24 hours) prior to scoring.
The signal appeared after 10-20 sec illumination and was stable for many minutes thereafter (see below).

human histone 1 (H1) = assay: titration of plasmid DNA with dye in absence or presence of histone 1; type: biochemical

Compound: COc1ccc2c(c1)c(C)nc1c3ccc(OC)cc3c(NCCCN(C)C)nc21 [Compound I, N′-(2,8-dimethoxy-12-methyl-dibenzo[c,h][1,5]naphthyridin-6-yl)-N,N-dimethyl-propane-1,3-diamine]
- reduction of fluorescence peak at 438 nm with dG/dC homopolymer ([1]; 1 μM dye, homopolymer at 40 μM): 12.7 fold
- fluorescence at 484 nm with dG/dC homopolymer, lower compared to dA/dT ([1]; 1 μM dye, homopolymers at 40 μM): 9.5 fold
- emission maximum ([1]; dA/dT homopolymers at bp/dye ratio 40): 484 nm
- difference in fluorescence bound to dA/dT and dG/dC homopolymers ([1]; dye/bp ratio 8, 5 μM dye, emission 484 nm, excitation 435 nm): 23 fold
- absorption at 435 nm, dG/dC superior to dA/dT ([1]; higher bp/dye ratios): ~30%
- illumination time to peak/plateau of nuclear fluorescence (live mouse fibroblasts): 8 min
- solubility (solubility in DMSO): ~7 mM (≈ 2830 µg/mL)
- illumination time before nuclear signal appeared (Xenopus cells XL177; Alexa488/FITC filter): 10 to 20 s
- cell membrane permeability (Xenopus cells XL177; live cells): cell-membrane permeant
- toxicity in cultured cells (Xenopus cells XL177; standard cell culture conditions): non-toxic under standard cell culture conditions (up to six days in culture)
- effect of H1 on dye/DNA fluorescence (human histone 1 (H1); 1 μM plasmid DNA, 1 μM H1, emission 484 nm, excitation 435 nm): H1 significantly affected the fluorescence
- effect of H1 on free dye fluorescence (human histone 1 (H1); excited at 391 nm): not quenched by H1
